Several values for one entry are separate records, joined by “and”; a condition that tells them apart may be missing. Equal entries are not always repeated. Where two headings read alike, the source gives them in different places. Ends that are not written are not given here.
Legend:
anti-K17F serum [1] = settings: cited from earlier work; for cross-reactivity with the apelin antiserum: ref De Mota et al, PNAS, 2004
Protocol: The columns were then treated as described in 207 the paragraph above.

[2] = tested on: normonatremic Sprague-Dawley rats; test: Effects of s.c. administration on metabolic parameters in normonatremic rats; format: in vivo, rat
control rats = test: Plasma AVP and apelin-IR levels in control rats (RIA); format: in vivo, rat; set-up: Apelin / AVP: unit not given here
Protocol: (§1) 187 Apelin radioimmunoassay
(§2) 189 until use for apelin RIA.
(§3) The supernatants were collected and
(§4) The samples were dried and dissolved in
(§5) 201 centrifuged (17000 x g, 4°C, 20 min). The supernatant (4 ml) was collected, and mixed with
(§6) The columns were then treated as described in
(§7) Samples (0.1ml) w ere mixed with 125I-
(§8) 212 used this radioligand instead of [Glp65, Nle75, Tyr77] [125I]-apelin13 since the substitution of
(§9) 214 derivatives as described previously by 3,4.
(§10) 216 incubated for 10 min at room temperature.
(§11) This antiserum identified the apelin present in the
(§12) Most of the apelin in human plasma was
(§13) 252 TechMedILL platfor m (Illkirch) reviewed and approved by the agriculture ministry regulating
(§14) 256 Male Sprague-Dawley rats were killed by decapitation, and trunk blood was collected on ice
(§15) 257 (into 50 µl of 0.3M EDTA (pH 7.4) per 1 ml of blood). Samples were centrifuged (2,600 x g,
(§16) 258 4°C, 20 min), and the resulting plasma was split into 500 µl aliquots, to which we added 168
(§17) 259 µl of 3N HCl before storage at -80°C. The AVP RIA was performed as previously described
(§18) 260 5, using a specific AVP-[Arg8] antibody (final dilution, 1/4.5) and [125I]-(Tyr2Arg8)-AVP
(§19) 261 (2200 Ci/mmol, Perkin-Elmer, Billerica, MA; 15000 dpm) as a tracer. […]

[3] = tested on: hyponatremic rats (AVP 30 ng/h); test: Effects of LIT01-196 and tolvaptan in rat model of AVP-induced hyponatremia; format: in vivo
Protocol: Meloxicam was administered postoperatively for analgesia. Animals were then individually housed in metabolic cages (Techniplast), and given a semi-liquid diet consisting of 25 ml Gel-Diet Breeding-10 (SAFE, Augy, France) mixed with 25 ml tap water per day, with water available ad libitum. Animal weight, water, and food consumption were measured daily. Urine was collected daily, urinary electrolytes (Na^+, K^+, Cl^−) were determined with an ISE 3000 (Caretium Medical Instruments, Shenzhen, China) and urinary osmolality was measured with a Cryobasic 1 osmometer (Astori Tecnica, Poncarale, Italy). Blood samples were collected on ice, before implantation of the osmotic minipump, and before drug administration, under isoflurane anesthesia, from the tail vein (4 µl of lithium heparinate (1600 IU/ml) for 400 µl of blood). The blood samples were immediately centrifuged (4 °C, 2600 × g, 20 min), and plasma electrolyte (Na^+, K^+, Cl^−) levels were quantified with an ISE 3000. On the last day of the experiment, blood was also collected on ice by intracardiac puncture. This blood sample was collected into lithium heparinate under isoflurane anesthesia; plasma electrolyte levels were determined as described above and the animals were immediately killed by carbon monoxide inhalation.

hyponatremic rats = test: Plasma AVP and apelin-IR levels in hyponatremic rats (RIA); format: in vivo, rat
Protocol: as §1, §2, §3, §4, §5, §6, §7, §8, §9, §10, §11, §12, §13, §14, §15, §16, §17, §18, §19

patients = settings: cited from earlier work
rat apelin-R = target: T1, rat apelin-R (Rattus norvegicus, UniProt Q9JHG3); test: Radioligand binding ([125I]-pE13F) to membranes from CHO cells stably expressing rat apelin-R-EGFP; settings: 1 h 20 °C, pH 7.4, new batch of LIT01-196
T1 construct: expressed in transfected cells; membrane preparation
T1 sequence (Q9JHG3 1-377): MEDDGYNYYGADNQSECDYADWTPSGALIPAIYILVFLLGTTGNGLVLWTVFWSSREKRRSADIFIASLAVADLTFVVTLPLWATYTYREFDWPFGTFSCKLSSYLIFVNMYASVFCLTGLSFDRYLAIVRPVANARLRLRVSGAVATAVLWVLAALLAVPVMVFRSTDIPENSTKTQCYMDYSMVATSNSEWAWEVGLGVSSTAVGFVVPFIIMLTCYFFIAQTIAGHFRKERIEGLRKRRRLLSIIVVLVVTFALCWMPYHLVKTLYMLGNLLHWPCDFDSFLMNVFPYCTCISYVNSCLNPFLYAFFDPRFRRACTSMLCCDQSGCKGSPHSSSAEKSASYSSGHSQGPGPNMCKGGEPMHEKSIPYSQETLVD
Protocol: Membranes from CHO cells stably expressing rat apelin-R-EGFP were prepared as previously described[23]. […] The reaction was stopped by adding ice-cold binding buffer and filtering through Whatman GF/C filters. The filters were washed and radioactivity was counted with a Wizard 1470 Wallac gamma counter (PerkinElmer, Turku, Finland).

rat apelin-R-EGFP = target: T2, rat apelin-R-EGFP (Rattus norvegicus, UniProt Q9JHG3); test: Inhibition of forskolin-induced cAMP production in CHO cells stably expressing rat apelin-R-EGFP (HTRF); format: cell-based; settings: 5 µmol/l forskolin, 30 min 20 °C
T2 construct: expressed in transfected cells
T2 sequence (Q9JHG3 1-377): T1 sequence (Q9JHG3 1-377)
Protocol: (§20) 152 Supplementary Methods
(§21) 154 We quantified cAMP production with the cAMP dynamic 2 assay kit (Cisbio Bioassays,
(§22) 155 Codolet, France), which is based on homogeneous time-resolved fluorescence (HTRF)
156 technology, as previously described 1. For cells expressing the Apelin-R, 2000 CHO cells/well
157 stably expressing rat apelinR-EGFP (clone B70) were added to the 384-well plate and
158 stimulated with 5 µmol/l forskolin (FSK) and various concentrations (0.01 pmol/l to 100 […]
(§23) Cells were then lysed, and
(§24) 165 cAMP levels were determined in accordance with the kit manufacturer’s instructions.
(§25) 166 Stimulation was performed in stimulation buffer-IBMX (SBI) (Hank’s balanced salt solution
(§26) 167 (HBSS-Life Technology), 5 mmol/l Hepes, 0.1% BSA stabilizer (Perkin Elmer), 1 mmol/l
(§27) 168 isobutylmethylxanthine (IBMX, Sigma Aldrich, pH 7.4)). […]

in vivo [4] = settings: rat, in vivo, iv
Protocol: as §1
(§28) 188 Plasma samples (0.5 ml) were acidified with 0.175 ml of 3 mol/l HCl and stored at -80°C
(§29) 189 until use for apelin RIA. Before thawing the sample on ice, 0.05% BSA was added, and the
(§30) 190 samples were centrifuged at 20000 x g at 4°C for 10 min. The supernatants were collected and
(§31) 191 the pH was adjusted to 6.5 with 10 mol/l NaOH and 2 mol/l Tris-HCl buffer (pH 7.4). Apelin
(§32) 192 was extracted from plasma by mixing the supernatant with 0.3 ml of 0.1% BSA in H2O and 1
(§33) 193 ml of 1% trifluoroacetic acid (TFA) - 0.1% BSA, and running the mixture on a Sep-Pak C18
(§34) 194 cartridge (Waters) previously washed with 2 ml 100% acetonitrile and equilibrated with 5 ml
(§35) 195 1% TFA - 0.1% BSA. The columns then were washed with 3 ml 1% TFA - 0.1% BSA and
(§36) 196 apelin was eluted with 1.5 ml 100% acetonitrile. […]
(§37) 208 Plasma or brain apelin levels w ere deter mined by RIA. Samples (0.1ml) w ere mixed with 125I-
(§38) 211 dilution: 1/4500) to give a total volume of 0.2 ml and were incubated at 4°C overnight. We
as §8, §9
(§39) 215 We then added 0.5 ml of Amerlex (Amersham RPN 510), and the resulting mixture was
(§40) 216 incubated for 10 min at room temperature. The tubes were centrifuged at 2600 x g at 4°C for
217 20 min. The supernatant was removed and the radioactivity of the precipitates was measured.
218 We assessed the cross-reactivity of the apelin antiserum with various N- and C-terminally
232 according to the following equation: [plasma apelin] tx = [plasma apelin] t0 * e(-kt) , where k is
233 the elimination rate constant. […]

in vivo [5] = settings: mouse, in vivo, iv
Protocol: as §1, §28, §29, §30, §31, §32, §33, §34, §35, §36, §37, §38, §8, §9, §39, §40
217 20 min. The supernatant was removed and the radioactivity of the precipitates was measured. […]

anti-K17F serum [6] = test: Inhibition of [125I]-pE13F binding to anti-K17F serum (apelin RIA, cross-reactivity); set-up: species or system rabbit; settings: read-out: IC50, recognition by antibody directed against K17F, antiserum 1/4500
Protocol: as §6, §7, §8, §9, §10, §11
Most of the apelin in human plasma was […]

human V2-R = target: T3, human V2-R (Homo sapiens, UniProt P30518); test: cAMP production in HEK-293 T cells expressing the human V2-R (HTRF); format: cell-based; settings: FSK 5.10-6M
T3 construct: host or cells: HEK-293T cells, transient transfection
Protocol: as §20, §21, §22
156 technology, as previously described 1. […]
For cells expressing the V2-R, HEK-
160 293T cells were transiently transfected with the human V2-R (cDNA Resource Center), after
161 48h, 4000 cells/well were added to white 384-well optiplates and stimulated either with 5
as §23, §24, §25, §26, §27

[7] = 900 nmol/kg SC (tolvaptan 0.4.SC [sic]), normonatremic rats, single animals

T3 sequence (P30518 whole entry): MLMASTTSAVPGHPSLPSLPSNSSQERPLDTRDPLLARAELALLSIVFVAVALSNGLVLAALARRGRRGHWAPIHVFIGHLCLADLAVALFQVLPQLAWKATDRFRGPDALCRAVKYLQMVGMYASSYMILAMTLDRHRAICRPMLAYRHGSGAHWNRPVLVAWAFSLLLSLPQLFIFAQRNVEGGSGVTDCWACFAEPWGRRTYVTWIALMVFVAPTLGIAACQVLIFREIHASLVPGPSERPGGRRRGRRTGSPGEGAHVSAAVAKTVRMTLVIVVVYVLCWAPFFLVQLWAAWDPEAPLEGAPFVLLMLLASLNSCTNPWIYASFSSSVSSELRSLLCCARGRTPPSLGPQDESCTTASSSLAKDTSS

## K16P: K17F after removal of the phenylalanine residue at the extreme end of the C-terminus (KFRRQRPRLSHKGPMP; UniProt Q9ULZ1 61-76, looked up, fragment)
anti-K17F serum [1]
  recognition by antibody directed against K17F: does not recognize
anti-K17F serum [1]; pE13F taken as 100%
  cross-reactivity with the apelin antiserum: < 0.3%

## Cc1ccccc1C(=O)Nc1ccc(C(=O)N2CCCC(O)c3cc(Cl)ccc32)c(C)c1 (stereo not shown) [tolvaptan, reference compound]
[2]; [7]
  Urine osmolality (3 hours): 400 and 540 and 520 and 404 and 412
  Urine osmolality (6 hours): 484 and 656 and 532 and 492 and 496
  Urine osmolality (24 hours): 772 and 1396 and 1244 and 1552 and 1324 and 1300 and 1592 and 1040 and 1416 and 1184 and 2300 and 1048
[2]; 900 nmol/kg s.c., 24 h
  increase in water intake: 37%
  increase in water intake to food intake ratio: 24%
[2]; 900 nmol/kg s.c., normonatremic rats
  increase in 24-h urine output relative to saline: 77%
[2]; 900 nmol/kg s.c., normonatremic rats, 24 h
  decrease in urine osmolality: 40%
[2]; LIT01-196 900 nmol/kg, tolvaptan 6700 nmol/kg s.c., 24 h
  Sodium excretion fraction: not changed
[2]; Tolvaptan 6700 nmol/kg SC, individual animals (Fig. S4C source data)
  Water excretion fraction: 0.8154 and 1.026 and 2.311 and 0.5818 and 0.7955 and 0.7
[2]; Tolvaptan 6700 nmol/kg SC, individual animals (Fig. S4D source data)
  Sodium excretion fraction: 0.6016 and 0.6502 and 0.5049 and 0.3349 and 0.4657 and 0.6432
[2]; normonatremic rats, 900 nmol/kg SC, individual animal values (source data Fig. 4L)
  Water to food ratio: 1.532 and 1.653 and 1.89 and 1.641 and 1.608
Control rats; 3 h after 6700 nmol/kg s.c.
  plasma apelin-IR levels versus control rats: similar
  plasma apelin/AVP ratio versus saline: similar
Control rats; 3 h after s.c., tolvaptan 6700 nmol/kg, LIT01-196 900 nmol/kg
  plasma AVP levels, higher than in animals receiving saline: 147%
Control rats; plasma AVP, Tolvaptan 6700 nmol/kg SC, individual animals (Fig. S4F source data)
  AVP: 46.8225 and 42.0318 and 57.2512 and 20.2981 and 21.5164 and 46.682
Control rats; plasma apelin-IR, Tolvaptan 6700 nmol/kg SC, individual animals (Fig. S4E source data)
  Apelin: 782.319 and 460.81 and 574.125 and 749.499 and 564.407 and 576.365
Control rats; plasma apelin/AVP ratio, Tolvaptan 6700 nmol/kg SC, individual animals (Fig. S4G source data)
  apelinAVPratio: 16.7082 and 10.9634 and 10.0282 and 36.9246 and 26.2315 and 12.3466
[3]; 900 nmol/kg s.c., rats receiving 30 ng/h AVP and liquid diet
  increase in urine output 24 h after s.c. administration: 9.5 ± 2.9 ml/24 h/100 g
[3]; 6700 nmol/kg s.c., rats receiving 30 ng/h AVP
  increase in urine output 24 h after s.c. administration: 27 ± 9.0 ml/24 h/100 g
Hyponatremic rats; 6700 nmol/kg s.c., 3 h
  plasma AVP and apelin levels versus AVP + saline: similar
Hyponatremic rats; AVP 30 ng/h rats, individual animals (Fig. 6A source data)
  Plasma AVP: 39.2062 and 41.6048 and 44.1878 and 29.3355 and 51.7522 and 30.996 and 44.9258 and 45.018
Hyponatremic rats; AVP 30 ng/h rats, individual animals (Fig. 6B source data)
  Plasma apelin: 312 and 375 and 335 and 404 and 283 and 315 and 384 and 365
Hyponatremic rats; AVP 30 ng/h rats, individual animals (Fig. 6C source data)
  Apelin to AVP ratio: 7.958 and 9.013 and 7.581 and 13.7717 and 5.468 and 10.1626 and 8.547 and 8.108
patients; 7.5 mg per day, hyponatremia patients, baseline serum sodium <125 mmol/l
  patients with overly rapid sodium correction: 23%
patients
  patients with ADPKD discontinuing treatment for aquaresis-related events: 8%

## apelin 36: molecular form of apelin identified in vivo (LVQPRGSRNGPGPWQGGRRKFRRQRPRLSHKGPMPF; Apelin-36; UniProt Q9ULZ1 42-77, looked up)
anti-K17F serum [1]; pE13F taken as 100%
  cross-reactivity with the apelin antiserum: 100%

## CSCC[C@H](NC(=O)[C@@H]1CCCN1C(=O)CNC(=O)[C@H](CCCCN)NC(=O)[C@H](Cc1cnc[nH]1)NC(=O)[C@H](CO)NC(=O)[C@H](CC(C)C)NC(=O)[C@H](CCCNC(=N)N)NC(=O)[C@@H]1CCCN1C(=O)[C@H](CCCNC(=N)N)NC(=O)[C@H](CCC(N)=O)NC(=O)[C@H](CCCNC(=N)N)NC(=O)[C@H](CCCNC(=N)N)NC(=O)[C@H](Cc1ccccc1)NC(=O)[C@@H](N)CCCCN)C(=O)N1CCC[C@H]1C(=O)N[C@@H](Cc1ccccc1)C(=O)O [K17F, reference compound]
Rat apelin-R
  Ki: 0.14 ± 0.02 nM
Rat apelin-R-EGFP
  IC50: 0.6 ± 0.2 nM
In vivo [4]
  half-life: 50 s
In vivo [5]
  half-life: 44 s

## angiotensin II (DRVYIHPF; Angiotensin-2; UniProt P01019 25-32, looked up)
anti-K17F serum [1]
  cross-reactivity with the apelin antiserum: Negligible cross-reactivity

## angiotensin III (RVYIHPF; Angiotensin-3; UniProt P01019 26-32, looked up)
anti-K17F serum [1]
  cross-reactivity with the apelin antiserum: Negligible cross-reactivity

## Fluoro-K16P: not recognized by the antibody directed against K17F (KFRRQRPRLSHKGPMP; also: fluorescent label, site and dye not given here; UniProt Q9ULZ1 61-76, looked up, fragment) [reference compound]
anti-K17F serum [6]
  IC50: > 1000 nM

## neuropeptide Y
anti-K17F serum [1]
  cross-reactivity with the apelin antiserum: Negligible cross-reactivity

## C=C[C@@]1(C)CC(=O)[C@]2(O)[C@@]3(C)[C@@H](O)CCC(C)(C)[C@@H]3[C@H](O)[C@H](OC(C)=O)[C@@]2(C)O1 [FSK]
Human V2-R; experiment 1
  cAMP production, Value (Fig 2B): 139.382
Human V2-R; experiment 2
  cAMP production, Value (Fig 2B): 85.1109
Human V2-R; experiment 3
  cAMP production, Value (Fig 2B): 116.78
Human V2-R; experiment 4
  cAMP production, Value (Fig 2B): 128.996

From publication PMC7804859, “A metabolically stable apelin-17 analog decreases AVP-induced antidiuresis and improves hyponatremia” (Nature Communications, 2021)
